Measured values published in patent US7767463B2, “Method for screening mobile phases in chromatography systems” (Cohesive Technologies, Inc., priority 2007, dated 2010).

Assay type: physicochemical
Text: The method provided herein provides for a technique to more reliably screen and select an appropriate eluent protocol. In an exemplary embodiment, reference is therefore made to FIG. 2. A given solvent or solvent combination may be prepared 210. Then a desired sample, alone or premixed with the same or another solvent, may be combined with the given solvent forming a mobile phase 220. The mobile phase may then be passed through a membrane 230. As discussed more fully below, the membrane may be representative of a particular chromatographic column with respect to variables such as pore diameter. The pressure of the mobile phase as it passes through the membrane may then be measured by pressure detectors on one or both sides of the membrane 240. The pressure differential between mobile phases containing the desired sample and various solvents may be assessed at 250. […]
The pressure developed prior to the membrane as the mobile phase passes through the membrane may be, as discussed above, indicative of the dissolution between the sample and the solvent. […] In addition, by comparing the pressure developed prior to the membrane of a given mobile phase P1 with a sample to a similar sample in other and different solvents, relative solubility may again be determined. […]

pressure differential: 25 bar
SMILES: c1ccc2ccccc2c1 [naphthalene]
